What was measured:
[1] = target: T1, monoamine oxidase A (MAO-A) (Rattus norvegicus, UniProt P21396); test: Inhibition of monoamine oxidase A in rat brain at 100 nM; assay type: tissue-based
T1 sequence (P21396 whole entry): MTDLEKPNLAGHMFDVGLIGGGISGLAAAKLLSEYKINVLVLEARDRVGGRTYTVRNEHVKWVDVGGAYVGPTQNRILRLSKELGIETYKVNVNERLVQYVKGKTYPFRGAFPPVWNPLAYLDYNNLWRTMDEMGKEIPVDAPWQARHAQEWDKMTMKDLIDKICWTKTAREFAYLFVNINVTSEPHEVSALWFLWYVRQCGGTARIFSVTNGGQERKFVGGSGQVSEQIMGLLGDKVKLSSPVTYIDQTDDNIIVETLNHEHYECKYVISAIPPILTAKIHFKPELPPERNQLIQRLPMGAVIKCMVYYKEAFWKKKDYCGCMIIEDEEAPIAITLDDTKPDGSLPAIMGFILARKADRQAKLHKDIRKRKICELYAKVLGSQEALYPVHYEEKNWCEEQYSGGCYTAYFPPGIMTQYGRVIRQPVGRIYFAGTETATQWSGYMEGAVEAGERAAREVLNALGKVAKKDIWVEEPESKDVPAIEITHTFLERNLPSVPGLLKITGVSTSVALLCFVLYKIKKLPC

[2] = target: T2, Type-1 angiotensin II receptor (Homo sapiens) (UniProt P30556); test: Inhibition of type 1 angiotensin 2 receptor at 10 uM
T2 sequence (whole entry): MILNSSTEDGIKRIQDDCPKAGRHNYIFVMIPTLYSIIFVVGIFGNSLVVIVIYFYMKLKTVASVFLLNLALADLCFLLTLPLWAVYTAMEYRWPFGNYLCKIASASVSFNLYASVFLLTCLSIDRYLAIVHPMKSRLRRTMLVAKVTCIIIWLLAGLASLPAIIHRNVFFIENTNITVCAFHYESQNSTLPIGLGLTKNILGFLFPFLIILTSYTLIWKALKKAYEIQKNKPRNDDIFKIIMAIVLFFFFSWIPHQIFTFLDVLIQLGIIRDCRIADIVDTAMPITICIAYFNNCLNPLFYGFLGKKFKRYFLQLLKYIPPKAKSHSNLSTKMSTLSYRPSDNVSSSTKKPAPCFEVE

[3] = target: T3, B2 bradykinin receptor (Homo sapiens) (UniProt P30411); test: Inhibition of bradykinin 2 receptor at 1 nM
T3 sequence (whole entry): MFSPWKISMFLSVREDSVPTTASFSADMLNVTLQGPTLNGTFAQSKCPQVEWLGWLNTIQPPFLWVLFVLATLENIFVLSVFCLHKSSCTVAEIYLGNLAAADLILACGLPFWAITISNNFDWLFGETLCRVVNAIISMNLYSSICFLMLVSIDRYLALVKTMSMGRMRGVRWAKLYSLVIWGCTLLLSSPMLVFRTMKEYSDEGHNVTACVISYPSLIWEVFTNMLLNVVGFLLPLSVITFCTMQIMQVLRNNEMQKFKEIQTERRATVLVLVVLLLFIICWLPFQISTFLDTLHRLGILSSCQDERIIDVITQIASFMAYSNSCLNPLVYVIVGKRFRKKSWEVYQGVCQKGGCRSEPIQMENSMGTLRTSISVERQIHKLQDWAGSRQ

[4] = target: Serotonin 3 (5-HT3) receptor; test: Inhibitory activity against 5HT3 receptor; assay type: protein-complex assay, Homo sapiens
[5] = target: Dopamine receptor (Homo sapiens) (UniProt P14416+P35462+P21918+P21917+P21728); test: Inhibition of non selective binding to dopamine receptor at 10 uM; assay type: protein assay
[6] = target: T4, Glutamate receptor ionotropic kainate (Homo sapiens) (UniProt P39086+Q16478+Q16099+Q13002+Q13003); test: Inhibition of kainate receptor at 100 nM; assay type: protein-complex assay
[7] = target: T5, Cysteinyl leukotriene receptor 1 (Homo sapiens) (UniProt Q9Y271); test: Inhibition of leukotriene D4 at 10 uM
T5 sequence (whole entry): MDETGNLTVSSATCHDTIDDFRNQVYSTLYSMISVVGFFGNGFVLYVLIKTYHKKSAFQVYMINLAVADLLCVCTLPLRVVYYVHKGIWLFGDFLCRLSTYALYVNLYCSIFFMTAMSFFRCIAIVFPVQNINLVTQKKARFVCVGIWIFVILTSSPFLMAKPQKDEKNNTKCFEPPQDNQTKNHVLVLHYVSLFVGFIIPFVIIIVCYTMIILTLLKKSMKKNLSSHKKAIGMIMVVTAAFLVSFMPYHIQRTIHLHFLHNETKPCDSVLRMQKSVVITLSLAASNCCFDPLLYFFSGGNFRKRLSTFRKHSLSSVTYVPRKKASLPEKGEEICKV

[8] = target: T6, Androgen receptor (Homo sapiens) (UniProt P10275); test: Inhibition of testosterone receptor at 10 uM
T6 sequence (whole entry): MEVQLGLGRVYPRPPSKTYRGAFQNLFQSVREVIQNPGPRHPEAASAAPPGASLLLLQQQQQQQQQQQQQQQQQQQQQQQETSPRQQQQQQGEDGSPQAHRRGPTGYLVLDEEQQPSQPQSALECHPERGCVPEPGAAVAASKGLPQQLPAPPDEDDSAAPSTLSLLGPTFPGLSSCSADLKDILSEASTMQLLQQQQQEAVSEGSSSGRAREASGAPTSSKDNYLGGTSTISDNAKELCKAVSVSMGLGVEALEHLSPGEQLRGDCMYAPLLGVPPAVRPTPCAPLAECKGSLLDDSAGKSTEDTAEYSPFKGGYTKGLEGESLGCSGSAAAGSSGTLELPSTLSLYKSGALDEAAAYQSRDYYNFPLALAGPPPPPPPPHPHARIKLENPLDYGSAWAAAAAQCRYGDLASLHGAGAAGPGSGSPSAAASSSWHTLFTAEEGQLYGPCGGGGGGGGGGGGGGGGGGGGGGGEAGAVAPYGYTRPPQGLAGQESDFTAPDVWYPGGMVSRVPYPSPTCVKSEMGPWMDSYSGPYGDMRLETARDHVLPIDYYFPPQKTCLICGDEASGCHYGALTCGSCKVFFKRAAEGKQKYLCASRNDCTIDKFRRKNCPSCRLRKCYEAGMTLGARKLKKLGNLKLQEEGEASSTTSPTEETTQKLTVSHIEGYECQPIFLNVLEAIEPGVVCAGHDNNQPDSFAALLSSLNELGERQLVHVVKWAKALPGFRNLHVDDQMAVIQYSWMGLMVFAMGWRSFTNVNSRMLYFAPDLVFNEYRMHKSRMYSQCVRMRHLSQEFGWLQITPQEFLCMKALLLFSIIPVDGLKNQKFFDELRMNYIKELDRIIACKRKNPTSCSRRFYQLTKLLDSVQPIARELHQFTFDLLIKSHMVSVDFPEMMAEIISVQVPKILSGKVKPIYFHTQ

[9] = target: Voltage-dependent N-type calcium channel subunit alpha-1B (Homo sapiens) (UniProt Q00975); test: Inhibitory activity at Calcium channel N type at 100 nM
Sequence of Voltage-dependent N-type calcium channel subunit alpha-1B (Homo sapiens) (Q00975 whole entry, looked up): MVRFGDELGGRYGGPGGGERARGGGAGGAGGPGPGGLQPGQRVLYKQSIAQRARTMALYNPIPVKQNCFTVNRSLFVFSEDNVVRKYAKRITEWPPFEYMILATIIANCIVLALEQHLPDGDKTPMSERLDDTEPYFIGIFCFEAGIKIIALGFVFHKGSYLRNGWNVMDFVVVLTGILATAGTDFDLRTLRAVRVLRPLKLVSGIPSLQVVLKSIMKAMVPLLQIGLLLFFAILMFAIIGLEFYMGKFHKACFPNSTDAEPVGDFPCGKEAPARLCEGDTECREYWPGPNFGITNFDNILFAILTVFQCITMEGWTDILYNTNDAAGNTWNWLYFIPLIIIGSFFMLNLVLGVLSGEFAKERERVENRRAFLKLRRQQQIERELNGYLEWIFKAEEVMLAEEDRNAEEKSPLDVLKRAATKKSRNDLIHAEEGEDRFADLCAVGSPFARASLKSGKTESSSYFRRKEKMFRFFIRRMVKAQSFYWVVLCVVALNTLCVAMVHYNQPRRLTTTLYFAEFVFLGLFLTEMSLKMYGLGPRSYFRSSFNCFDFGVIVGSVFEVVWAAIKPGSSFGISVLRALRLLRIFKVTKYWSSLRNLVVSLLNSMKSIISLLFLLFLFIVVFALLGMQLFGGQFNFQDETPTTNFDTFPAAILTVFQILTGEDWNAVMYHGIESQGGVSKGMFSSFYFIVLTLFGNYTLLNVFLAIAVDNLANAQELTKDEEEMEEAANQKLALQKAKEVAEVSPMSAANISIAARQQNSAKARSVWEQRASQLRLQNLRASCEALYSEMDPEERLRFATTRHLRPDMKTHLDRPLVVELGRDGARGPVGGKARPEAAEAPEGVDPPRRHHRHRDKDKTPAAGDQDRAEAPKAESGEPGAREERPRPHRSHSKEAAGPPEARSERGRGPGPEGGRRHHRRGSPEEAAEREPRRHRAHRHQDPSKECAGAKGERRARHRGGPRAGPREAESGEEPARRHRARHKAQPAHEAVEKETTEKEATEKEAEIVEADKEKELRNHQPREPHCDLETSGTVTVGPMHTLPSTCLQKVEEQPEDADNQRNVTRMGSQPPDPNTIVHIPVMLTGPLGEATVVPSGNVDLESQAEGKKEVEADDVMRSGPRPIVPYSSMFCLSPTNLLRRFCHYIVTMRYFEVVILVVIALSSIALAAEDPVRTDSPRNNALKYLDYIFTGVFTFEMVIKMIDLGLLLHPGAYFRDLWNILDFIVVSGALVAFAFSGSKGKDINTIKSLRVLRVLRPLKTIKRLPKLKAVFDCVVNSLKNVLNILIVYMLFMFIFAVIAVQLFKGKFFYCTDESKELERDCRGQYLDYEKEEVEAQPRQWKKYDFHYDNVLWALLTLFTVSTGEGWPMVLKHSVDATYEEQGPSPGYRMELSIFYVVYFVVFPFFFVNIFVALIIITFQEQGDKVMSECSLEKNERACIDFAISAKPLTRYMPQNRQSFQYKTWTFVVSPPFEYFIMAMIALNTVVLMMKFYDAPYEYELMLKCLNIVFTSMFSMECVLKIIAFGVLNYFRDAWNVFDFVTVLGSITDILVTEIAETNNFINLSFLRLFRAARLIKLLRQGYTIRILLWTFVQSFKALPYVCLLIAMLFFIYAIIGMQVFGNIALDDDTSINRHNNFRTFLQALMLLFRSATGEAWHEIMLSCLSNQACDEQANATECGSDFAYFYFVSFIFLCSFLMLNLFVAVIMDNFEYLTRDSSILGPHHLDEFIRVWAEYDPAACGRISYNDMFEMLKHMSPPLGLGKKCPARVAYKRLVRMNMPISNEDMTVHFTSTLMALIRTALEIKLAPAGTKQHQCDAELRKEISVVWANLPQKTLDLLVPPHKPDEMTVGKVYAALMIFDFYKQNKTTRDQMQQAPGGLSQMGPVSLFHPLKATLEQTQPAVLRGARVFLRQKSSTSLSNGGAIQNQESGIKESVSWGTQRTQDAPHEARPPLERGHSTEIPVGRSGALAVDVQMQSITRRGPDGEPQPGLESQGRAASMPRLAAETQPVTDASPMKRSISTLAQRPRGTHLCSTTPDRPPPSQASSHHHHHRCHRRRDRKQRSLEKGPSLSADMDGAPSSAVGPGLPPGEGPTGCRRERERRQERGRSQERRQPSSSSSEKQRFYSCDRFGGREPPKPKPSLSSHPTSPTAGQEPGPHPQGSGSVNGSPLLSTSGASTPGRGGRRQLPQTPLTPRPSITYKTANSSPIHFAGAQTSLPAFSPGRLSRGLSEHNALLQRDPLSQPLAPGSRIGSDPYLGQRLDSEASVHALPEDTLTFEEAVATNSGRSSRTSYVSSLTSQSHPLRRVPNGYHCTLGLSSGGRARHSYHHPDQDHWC

[10] = target: Glutamate [NMDA] receptor (Homo sapiens) (UniProt Q05586+Q12879+Q13224+O15399+O60391+Q14957+Q8TCU5); test: Inhibition of agonist site of NMDA receptor at 100 nM; assay type: functional
[11] = target: T4, Glutamate receptor ionotropic kainate (Homo sapiens); test: Inhibition of kainate receptor at 1 nM; assay type: protein-complex assay

In the case of `C[C@H](N)Cn1ncc2ccc(O)cc21`, the inhibition at 0.1 µM [1] is reported as -22.3%, the inhibition [2] is reported as 6.55% and the inhibition [3] is reported as -6.46%. The Ki [4] was > 10 µM, the inhibition [5] was 51.2% and the inhibition [6] was 6.16%. The inhibition [7] was 0.07%, the inhibition [8] was 21.9% and the inhibition [9] was 2.01%. It also gave an inhibition [10] of 15.7% and an inhibition [11] of 12%.
